Consider two molecules from patent publication US20260028334A1, “N-(3-(BENZO[B]THIOPHENE-2-CARBOXAMIDO)-PHENYL)-2,3-DIHYDROBENZO[B][1,4]DIOXINE-6-CARBOXAMIDE DERIVATIVES AND RELATED COMPOUNDS AS LACTATE/ATP PRODUCTION INHIBITORS FOR THE TREATMENT OF CANCER” (WMT Aktiengesellschaft, priority 2022, published 2026).

Format in all cases: cell-based
In one experiment the target is HIF1a (Homo sapiens (Human), UniProt Q16665). As to the kind of experiment: Western Blot analysis of HIF1a. The note with it: HeLa cells, 24 hours, 0.1, 0.3 and 1 μM, normoxic and hypoxic conditions, FIG. 4. How it is done: (§1) Western Blot analysis was used to detect amounts of specific protein in differently treated cells. Proteins are separated by size, transferred onto a nitrocellulose membrane and incubated with protein specific antibodies. The density of the observed band is proportional to the amount of the specific protein inside the cell.
Cells were plated at 4×10^6 (for hypoxia) or 3×10^6 (for normoxia) cells per […] plate in medium of high glucose DMEM (PAN) supplemented with 10% FBS (PAN), 2 mM glutamine-alanine (PAN), 2 mM pyruvate (Sigma) and 10 ml/L penicillin-streptomycin (PAN), and grown at 37° C. in 0.5% O2, 5% CO2 and 75% humidity. For hypoxia, cells were grown and treated in the Whitley H35 Hypoxystation (Don Whitley Scientific) at 37° C. in 0.5% O2, 5% CO2 and 75% humidity. Next day, the cells were treated with test compounds (FIG. 4: compounds of example 3/8 and 10 at concentrations 0.1, 0.3 and 1 μM, Bafilomycin A at 20 nM; FIG. 5: compounds of example 3/16, 3/8 and 10 at concentrations 10, 30 and 100 nM, Bafilomycin A at 20 nM), as well as with vehicle (DMSO) only, for 24 h. […] Protein concentration of the sample was measured using the DC Protein Assay Kit (Biorad, 5000112), 22 μg of protein extract per well was loaded onto a precast SDS page gel (Biorad, 1704273). […] The chemiluminescence was measured using chemiluminescent substrate (#34580, Thermo Scientific).
For orientation: Immunoblotting shows a protein as a band on a membrane.

In the next experiment the target is p62 (Homo sapiens (Human), UniProt Q13501). As to the kind of experiment: Western Blot analysis of p62. The following applies: HeLa cells, normoxic and hypoxic conditions; for p62: 24 hours, 10, 30 and 100 nM, also with Bafilomycin A, FIG. 5. How it is done: as §1
Cells were plated at 4×10^6 (for hypoxia) or 3×10^6 (for normoxia) cells per […] plate in medium of high glucose DMEM (PAN) supplemented with 10% FBS (PAN), 2 mM glutamine-alanine (PAN), 2 mM pyruvate (Sigma) and 10 ml/L penicillin-streptomycin (PAN), and grown at 37° C. in […], 5% CO2 and 75% humidity. For hypoxia, cells were grown and treated in the Whitley H35 Hypoxystation (Don Whitley Scientific) at 37° C. in 0.5% O2, 5% CO2 and 75% humidity. Next day, the cells were treated with test compounds (FIG. 4: compounds of example 3/8 and 10 at concentrations 0.1, 0.3 and 1 μM, Bafilomycin A at 20 nM; FIG. 5: compounds of example 3/16, 3/8 and 10 at concentrations 10, 30 and 100 nM, Bafilomycin A at 20 nM), as well as with vehicle (DMSO) only, for 24 h. After 24 hours, the cells were washed with PBS and scraped to collect. The lysate was centrifuged at 2,000 rpm for 3 min at 4° C. The cell pellet was resuspended in 250 μl Lysis Buffer (20 mM Tris pH 7.8, 150 mM NaCl, 0.05% Tween20, 2 mM MgCl2, protease inhibitors (Roche), 1 mM NaF, 1 mM Na3VO4) and sonicated at 50% for 20 sec. The sample was centrifuged at 14,000 rpm for 4 min at 4° C. Protein concentration of the sample was measured using the DC Protein Assay Kit (Biorad, 5000112), 22 μg of protein extract per well was loaded onto a precast SDS page gel (Biorad, 1704273). Proteins were then transferred onto a PVDF-membrane (Biorad, 10026933) using Biorad Trans-Blot Turbo Transfer System. […] The chemiluminescence was measured using chemiluminescent substrate (#34580, Thermo Scientific).

The next experiment relates to lactate production. The experiment in a line: Lactate production inhibition assay. The following applies: summary of Table 1. The text has this:
Recombinant Lactate Dehydrogenase A (LDHA) was used to convert lactate in tissue culture supernatants to pyruvate, with the concomitant reduction of NAD^+ to NADH. The electron acceptor 1-methoxyphenazine methosulfate (MPMS) was then reduced by the generated NADH, thereby regenerating NAD+. Reduced 1-methoxyphenazine methosulfate is used in turn to reduce Water Soluble Tetrazolium 8 (WST8) to an orange WST8 formazan product. The assay is adapted from the publication “Application of WST-8 based colorimetric NAD(P)H detection for quantitative dehydrogenase assays” described in Chamchoy et al., BMC Biochemistry (2019) 20(1):4.
Cells were plated at 4,000 per well in 96-well plate in a medium of high glucose DMEM (PAN) supplemented with 10% FBS (PAN), 2 mM glutamine-alanine (PAN), 2 mM pyruvate (Sigma) and 10 mL/L penicillin-streptomycin (PAN) and grown at 37° C. in 0.5% O2, 5% CO2 and 75% humidity. For hypoxia, cells were grown and treated in the Whitley H35 Hypoxystation (Don Whitley Scientific) at 37° C. in 0.5% O2, 5% CO2 and 75% humidity. The next day, cells were induced with test compounds (FIG. 2: compounds of examples 3/16, 3/8, 10 at 10000, 3333, 1111, 370, 123, 41, 14, 5 and 1.5 nM; FIG. 7: compounds of examples 3/16, 3/8, 10 at 41, 14, 4.6 nM and Phenformin at 100, 50, 25, 12.5, 6.25 μM; FIGS. 8C and 8D: compounds of example 3/16, 3/8, 10, 3/19, 30 and 30/2 at 10000, 3333, 1111, 370, 123, 41, 14, 5 and 1.5 nM), as well as with vehicle (DMSO) only, for 48 hours. After this time, the medium was removed from the cells to measure extracellular lactate. To detect extracellular lactate, cell supernatants are diluted 1:5 in assay buffer (0.2 M tris, pH 8.2) by adding 10 μl cell supernatant+40 μl buffer in a 96-well plate. Assay substrate mix is prepared by adding NAD+ (3.75 mM), WST-8 (0.9 mM), MPMS (10 mM) and recombinant LDHA, expressed in E. coli as an N-terminal hexahistidine tagged fusion protein, is added to a final concentration of 0.8 μg/ml in assay buffer. Thereafter, 80 μl of substrate mix is added to 20 μl of diluted cell supernatant in a 96-well flat-bottomed plate and the absorbance at 460 nm determined at one minute intervals over a 30 minute period. A standard curve of known lactate concentrations of 10, 8, 6, 4, 1, 0.5 and 0.25 mM was constructed for each assay plate.

Consider `O=C(Nc1ccc(F)c(NC(=O)c2cc3ccc(OCCCN4CCCC4)cc3s2)c1)c1ccc2c(c1)OCCO2` [3/8], for which, on HIF1a, the HIF1a protein levels result is recorded as “dose-dependent reduction”. In addition, on p62 (24 hours, 0.1, 0.3 and 1 μM, FIG. 4), the p62 protein levels result is recorded as “dose-dependent reduction”. For the same molecule, on p62, the p62 result was “dose-dependent reduction”. Further, the “activity in inhibiting production of ATP and/or lactate” value with lactate production is on record as “high activity”.
Take `Cc1ccc(NC(=O)c2ccc3c(c2)OCCO3)cc1NC(=O)c1cc2cccnc2s1` [3/16]: the p62 entry on p62 is on record as “dose-dependent reduction”. In the experiment with lactate production, the “activity in inhibiting production of ATP and/or lactate” value is “high activity”.
